# How the values were obtained:
# [1] = system: Burkholderia seminalis (CBC 040); conditions: reference (1); cited from earlier work
# [2] = system: Bacillus cereus (ATCC10876); assay: MIC/MBC antibiotic sensitivity (CLSI); assay type: cell-based
# Procedure: (§1) The new compounds of the invention were synthesized following the general method of preparation (Tetrahedron, 2001, 57, 1671-1675), from the reaction between an intermediary compound of the acyl thiourea and HgCl2 in presence of trimethylamine. The products were adequately characterized regarding its chemistry. The antibacterial activity of the new compounds was assayed against two Gram-positive reference strains: Staphylococcus aureus (ATCC6538) and Bacillus cereus (ATCC10876), a fermenting Gram-negative strain: Escherichia coli (ATCC25922), and 26 non-fermenting Gram-negative isolates, including 3 reference strains: Pseudomonas aeruginosa (PAO1), Bordetella bronchiseptica (9.73H+), and Inquilinus limosus (DSM16000), and 23 isolates recovered from patients suffering from cystic fibrosis, including one Achromobacter xylosoxidans isolate, and 22 isolates belonging to the Burkholderia cepacia complex. The later were selected because they presented resistance to a high number of antimicrobial compounds, among a panel of 125 clinical isolates previously analyzed for its resistance against 17 antimicrobial compounds (1,2). The antibiotic sensitivity studies were performed by applying two quantitative methods which allow to determine the minimum inhibitory concentration (MIC) and the minimum bactericidal concentration (MBC).
# (§2) The compounds obtained in Examples 1 and 2 were assayed against 23 isolates recovered from the sputum of patients suffering from cystic fibrosis being treated at the Sor Maria Ludovica Children Hospital (La Plata, Buenos Aires, Argentina). Nineteen of these isolates were selected for being highly resistant to most of the antimicrobial agents of clinical use from a panel of 125 isolates previously characterized in Martina et al. (1). Reference strains were also included: Gram (+) bacteria: B. cereus and S. aureus, fermenting Gram (−) bacteria: E. coli, and non-fermenting Gram (−) bacteria: Inquilinus limosus (DSM16000), B. bronchiseptica, and Pseudomonas aeruginosa (PAO1). The antibiotic sensitivity studies were performed applying two quantitative methods which allow to determine the minimum inhibitory concentration (MIC) and the minimum bactericidal concentration (MBC) according to the criteria established by the Clinical and Laboratory Standards Institute (CLSI) (4). For comparative purposes, three antibiotics commonly used in the treatment of pulmonary infections in cystic fibrosis patients were included in the study: tobramycin, ceftazidime and meropenem.
# [3] = system: Burkholderia cenocepacia (CBC 032); assay: MIC/MBC antibiotic sensitivity (CLSI); assay type: cell-based
# Procedure: as §1, §2
# [4] = system: Burkholderia cenocepacia (CBC 029); assay: MIC/MBC antibiotic sensitivity (CLSI); assay type: cell-based
# Procedure: as §1, §2
# [5] = system: Burkholderia multivorans (CBC 021); assay: MIC/MBC antibiotic sensitivity (CLSI); assay type: cell-based; conditions: Ceftazimide, CLSI criteria; B. multivorans (CBC 021)
# Procedure: as §1, §2
# [6] = system: Burkholderia cenocepacia (CBC 033); assay: MIC/MBC antibiotic sensitivity (CLSI); assay type: cell-based
# Procedure: as §1, §2
# [7] = system: Burkholderia cenocepacia (CBC 031); assay: MIC/MBC antibiotic sensitivity (CLSI); assay type: cell-based
# Procedure: as §1, §2
# [8] = system: Burkholderia multivorans (CBC 016); assay: MIC/MBC antibiotic sensitivity (CLSI); assay type: cell-based
# Procedure: as §1, §2
# [9] = system: Escherichia coli (ATCC25922); assay: MIC/MBC antibiotic sensitivity (CLSI); assay type: cell-based; conditions: E. coli (ATCC25922)
# Procedure: as §1, §2
# [10] = system: Burkholderia multivorans (CBC 020); assay: MIC/MBC antibiotic sensitivity (CLSI); assay type: cell-based; conditions: Ceftazimide, CLSI criteria; B. multivorans (CBC 020)
# Procedure: as §1, §2
# [11] = system: Bordetella bronchiseptica (9.73H+); assay: MIC/MBC antibiotic sensitivity (CLSI); assay type: cell-based; conditions: B. bronchiseptica (9.73H+)
# Procedure: as §1, §2
# [12] = system: Burkholderia cenocepacia (HE001); assay: MIC/MBC antibiotic sensitivity (CLSI); assay type: cell-based; conditions: Ceftazimide, CLSI criteria; B. cenocepacia (HE001)
# Procedure: as §1, §2
# [13] = system: Staphylococcus aureus (ATCC6538); assay: MIC/MBC antibiotic sensitivity (CLSI); assay type: cell-based; conditions: S. aureus (ATCC6538)
# Procedure: as §1, §2
# [14] = system: Burkholderia multivorans (CBC 022); assay: MIC/MBC antibiotic sensitivity (CLSI); assay type: cell-based; conditions: Ceftazimide, CLSI criteria; B. multivorans (CBC 022)
# Procedure: as §1, §2
# B. contaminans (HNBC001) = assay: MIC/MBC antibiotic sensitivity (CLSI); assay type: cell-based; conditions: Ceftazimide, CLSI criteria
# Procedure: as §1, §2
# [15] = system: Burkholderia multivorans (CBC 015); assay: MIC/MBC antibiotic sensitivity (CLSI); assay type: cell-based
# Procedure: as §1, §2
# [16] = system: Pseudomonas aeruginosa (PAO1); assay: MIC/MBC antibiotic sensitivity (CLSI); assay type: cell-based; conditions: P. aeruginosa (PAO1)
# Procedure: as §1, §2
# [17] = system: Burkholderia seminalis (CBC 042); assay: MIC/MBC antibiotic sensitivity (CLSI); assay type: cell-based; conditions: Ceftazimide, CLSI criteria; B. seminalis (CBC 042)
# Procedure: as §1, §2
# [18] = system: Burkholderia cenocepacia (CBC 023); assay: MIC/MBC antibiotic sensitivity (CLSI); assay type: cell-based; conditions: Ceftazimide, CLSI criteria; B. cenocepacia (CBC 023)
# Procedure: as §1, §2
# [19] = system: Burkholderia cenocepacia (CBC 024); assay: MIC/MBC antibiotic sensitivity (CLSI); assay type: cell-based
# Procedure: as §1, §2
# [20] = system: Burkholderia multivorans (CBC 019); assay: MIC/MBC antibiotic sensitivity (CLSI); assay type: cell-based; conditions: Ceftazimide, CLSI criteria; B. multivorans (CBC 019)
# Procedure: as §1, §2
# [21] = system: Burkholderia multivorans (CBC 018); assay: MIC/MBC antibiotic sensitivity (CLSI); assay type: cell-based
# Procedure: as §1, §2
# [22] = system: Burkholderia cenocepacia (CBC 036); assay: MIC/MBC antibiotic sensitivity (CLSI); assay type: cell-based
# Procedure: as §1, §2
# [23] = system: Inquilinus limosus (DSM16000); assay: MIC/MBC antibiotic sensitivity (CLSI); assay type: cell-based; conditions: Ceftazimide, CLSI criteria
# Procedure: as §1, §2
# [24] = system: Burkholderia cepacia (CBC 010); assay: MIC/MBC antibiotic sensitivity (CLSI); assay type: cell-based; conditions: Ceftazimide, CLSI criteria; B. cepacia (CBC 010)
# Procedure: as §1, §2
# [25] = system: Burkholderia seminalis (CBC 040); assay: MIC/MBC antibiotic sensitivity (CLSI); assay type: cell-based; conditions: Ceftazimide, CLSI criteria; B. seminalis (CBC 040)
# Procedure: as §1, §2
# [26] = system: Burkholderia cepacia (CBC 011); assay: MIC/MBC antibiotic sensitivity (CLSI); assay type: cell-based; conditions: Ceftazimide, CLSI criteria; B. cepacia (CBC 011)
# Procedure: as §1, §2
# [27] = system: Burkholderia cenocepacia (CBC 035); assay: MIC/MBC antibiotic sensitivity (CLSI); assay type: cell-based
# Procedure: as §1, §2
# [28] = system: Achromobacter xylosaxidans (HNA001); assay: MIC/MBC antibiotic sensitivity (CLSI); assay type: cell-based, Achromobacter xylosoxidans; conditions: Ceftazimide, CLSI criteria; A. xylosaxidans (HNA001)
# Procedure: as §1, §2
# B. cenacepacia (FQC2524) = assay: MIC/MBC antibiotic sensitivity (CLSI); assay type: cell-based, B. cenocepacia; conditions: Ceftazimide, CLSI criteria
# Procedure: as §1, §2
compound,measurement,setting,value
O=C(O)c1cn(C2CC2)c2cc(N3CCNCC3)c(F)cc2c1=O [ciprofloxacin],resistance of the strain to commercial antibiotics,[1],resistant
CCn1cc(C(=O)O)c(=O)c2ccc(C)nc21 [nalidixic acid],resistance of the strain to commercial antibiotics,[1],resistant
NCC[C@H](O)C(=O)N[C@@H]1C[C@H](N)[C@@H](O[C@H]2O[C@H](CN)[C@@H](O)[C@H](O)[C@H]2O)[C@H](O)[C@H]1O[C@H]1O[C@H](CO)[C@@H](O)[C@H](N)[C@H]1O [amikacin],resistance of the strain to commercial antibiotics,[1],resistant
gentamicin,resistance of the strain to commercial antibiotics,[1],resistant
"CC(C)(O/N=C(\C(=O)N[C@@H]1C(=O)N2C(C(=O)[O-])=C(C[n+]3ccccc3)CS[C@H]12)c1csc(N)n1)C(=O)O [Ceftazimide, ceftazidime]",MBC,[2],0.97 µg/mL
same,MIC,[2],0.97 µg/mL
same,MBC,[3]; Burkholderia cenocepacia (CBC 032),7.81 µg/mL
same,MIC (R/I/S category),"[3]; Ceftazimide, CLSI criteria, B. cenocepacia (CBC 032)",S (<8 μg/ml S)
same,MBC,[4]; Burkholderia cenocepacia (CBC 029),15.62 µg/mL
same,MIC (R/I/S category),"[4]; Ceftazimide, CLSI criteria, B. cenocepacia (CBC 029)",S (<8 μg/ml S)
same,MIC (R/I/S category),[5],R (>32 μg/ml R)
same,MBC,[6]; Burkholderia cenocepacia (CBC 033),31.25 µg/mL
same,MIC (R/I/S category),"[6]; Ceftazimide, CLSI criteria, B. cenocepacia (CBC 033)",S (<8 μg/ml S)
same,MBC,[7]; Burkholderia cenocepacia (CBC 031),7.81 µg/mL
same,MIC (R/I/S category),"[7]; Ceftazimide, CLSI criteria, B. cenocepacia (CBC 031)",S (<8 μg/ml S)
same,MBC,[8]; Burkholderia multivorans (CBC 016),3.9 µg/mL
same,MIC (R/I/S category),"[8]; Ceftazimide, CLSI criteria, B. multivorans (CBC 016)",S (<8 μg/ml S)
same,MBC,[9],0.97 µg/mL
same,MIC,[9],0.97 µg/mL
same,MIC (R/I/S category),[10],R (>32 μg/ml R)
same,MBC,[11],62.5 µg/mL
same,MIC,[11],7.81 µg/mL
same,MIC (R/I/S category),[12],R (>32 μg/ml R)
same,MBC,[13],7.81 µg/mL
same,MIC,[13],7.81 µg/mL
same,MIC (R/I/S category),[14],R (>32 μg/ml R)
same,MIC (R/I/S category),B. contaminans (HNBC001),S (<8 μg/ml S)
same,MBC,[15]; Burkholderia multivorans (CBC 015),7.81 µg/mL
same,MIC (R/I/S category),"[15]; Ceftazimide, CLSI criteria, B. multivorans (CBC 015)",S (<8 μg/ml S)
same,MBC,[16],1.95 µg/mL
same,MIC,[16],1.95 µg/mL
same,MIC (R/I/S category),[17],R (>32 μg/ml R)
same,MIC (R/I/S category),[18],R (>32 μg/ml R)
same,MBC,[19]; Burkholderia cenocepacia (CBC 024),7.81 µg/mL
same,MIC (R/I/S category),"[19]; Ceftazimide, CLSI criteria, B. cenocepacia (CBC 024)",S (<8 μg/ml S)
same,MIC (R/I/S category),[20],R (>32 μg/ml R)
same,MBC,[21]; Burkholderia multivorans (CBC 018),7.81 µg/mL
same,MIC (R/I/S category),"[21]; Ceftazimide, CLSI criteria, B. multivorans (CBC 018)",S (<8 μg/ml S)
same,MBC,[22]; Burkholderia cenocepacia (CBC 036),15.62 µg/mL
same,MIC (R/I/S category),"[22]; Ceftazimide, CLSI criteria, B. cenocepacia (CBC 036)",S (<8 μg/ml S)
same,MIC (R/I/S category),[23],R (>32 μg/ml R)
same,MIC (R/I/S category),[24],R (>32 μg/ml R)
same,MIC (R/I/S category),[25],R (>32 μg/ml R)
same,MIC (R/I/S category),[26],R (>32 μg/ml R)
same,MBC,[27]; Burkholderia cenocepacia (CBC 035),15.62 µg/mL
same,MIC (R/I/S category),"[27]; Ceftazimide, CLSI criteria, B. cenocepacia (CBC 035)",S (<8 μg/ml S)
same,MIC (R/I/S category),[28],S (<8 μg/ml S)
same,MIC (R/I/S category),B. cenacepacia (FQC2524),S (<8 μg/ml S)
same,resistance of the strain to commercial antibiotics,[1],resistant
CO/N=C(\C(=O)N[C@@H]1C(=O)N2C(C(=O)[O-])=C(C[N+]3(C)CCCC3)CS[C@H]12)c1csc(N)n1 [cefepime],resistance of the strain to commercial antibiotics,[1],resistant
CC(=O)OCC1=C(C(=O)O)N2C(=O)[C@@H](NC(=O)Cc3cccs3)[C@H]2SC1 [cefalotin],resistance of the strain to commercial antibiotics,[1],resistant
CC1(C)S[C@@H]2[C@H](NC(=O)[C@H](N)c3ccccc3)C(=O)N2[C@H]1C(=O)O [ampicillin],resistance of the strain to commercial antibiotics,[1],resistant
CO/N=C(\C(=O)N[C@@H]1C(=O)N2C(C(=O)O)=C(COC(C)=O)CS[C@H]12)c1csc(N)n1 [cefotaxim],resistance of the strain to commercial antibiotics,[1],resistant
CO[C@@]1(NC(=O)Cc2cccs2)C(=O)N2C(C(=O)O)=C(COC(N)=O)CS[C@@H]21 [cefoxitin],resistance of the strain to commercial antibiotics,[1],resistant
colistin,resistance of the strain to commercial antibiotics,[1],resistant

# Source: US10857110B2, “Antibacterial compounds” (CONSEJO NACIONAL DE INVESTIGACIONES CIENTÍFICAS Y TÉCNICAS …, priority 2016, dated 2020)
